Data reported in patent US20240158446A1, “CYCLIC COMPOUND HAVING SELECTIVE INHIBITORY ACTION ON KRAS OVER HRAS AND NRAS” (CHUGAI SEIYAKU KABUSHIKI KAISHA, priority 2021, published 2024).
Where two headings read alike, the source gives them in different places. *1 amine or outer side, *2 acyl side, *3 side chain or, on linkers, in order; H or OH if unused. Where a SMILES comes first, the peptide text is derived from it. Bridges are numbered along the chain shown (N, C = ends). [ ]: non-standard residue; d: D form. The star is where a group is joined. X22 = O=C([C@H](Cc1ccc(C(F)(F)F)cc1)N(CC1CCCC1)[*:1])[*:2]; hPhe(3-Cl-4-CF3) = N[C@@H](CCc1ccc(C(F)(F)F)c(Cl)c1)C(=O)O; NPrPhe(4-CF3) = CCCN[C@@H](Cc1ccc(C(F)(F)F)cc1)C(=O)O; NMePhe(4-Me) = CN[C@@H](Cc1ccc(C)cc1)C(=O)O; Pip(4,4-F2) = O=C(O)[C@@H]1CC(F)(F)CCN1; NMeGly(cPent) = CN[C@H](C(=O)O)C1CCCC1; Pro(4,4-F2) = O=C(O)[C@@H]1CC(F)(F)CN1; NMeD = CN[C@@H](CC(=O)O)C(=O)O; NMeL = CN[C@@H](CC(C)C)C(=O)O; NMeS = CN[C@@H](CO)C(=O)O; Morpholide = C1CN(*)CCO1; NAllylGly = C=CCNCC(=O)O; Ac5c = NC1(C(=O)O)CCCC1; Ac4c = NC1(C(=O)O)CCC1; NEtG = CCNCC(=O)O; Sar = CNCC(=O)O

Experiments:
[1] = molecular target: GDP-bound HRAS wild-type protein (Homo sapiens, UniProt P01112); assay: Binding to HRAS by surface plasmon resonance (SPR), Single Cycle Kinetics; conditions: for HRAS/KRAS (ratio of KD value with respect to HRAS to KD value with respect to KRAS) / HRAS/KRAS (ratio of KD value for HRAS to KD value for KRAS): SPR, GDP-bound HRAS wild-type protein vs GDP-bound KRAS wild-type protein
Chain of GDP-bound HRAS wild-type protein (P01112 whole entry): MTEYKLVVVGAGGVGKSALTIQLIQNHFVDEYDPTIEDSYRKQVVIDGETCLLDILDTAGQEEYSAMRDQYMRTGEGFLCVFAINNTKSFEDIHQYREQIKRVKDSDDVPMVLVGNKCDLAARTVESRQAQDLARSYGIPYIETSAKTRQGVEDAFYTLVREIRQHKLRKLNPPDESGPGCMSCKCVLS

[2] = molecular target: GDP-bound KRAS wild-type protein (Homo sapiens, UniProt P01116); assay: Binding to KRAS by surface plasmon resonance (SPR), Single Cycle Kinetics; conditions: GDP-bound KRAS wild-type protein, read-out: KRAS KD
Chain of GDP-bound KRAS wild-type protein (P01116 whole entry): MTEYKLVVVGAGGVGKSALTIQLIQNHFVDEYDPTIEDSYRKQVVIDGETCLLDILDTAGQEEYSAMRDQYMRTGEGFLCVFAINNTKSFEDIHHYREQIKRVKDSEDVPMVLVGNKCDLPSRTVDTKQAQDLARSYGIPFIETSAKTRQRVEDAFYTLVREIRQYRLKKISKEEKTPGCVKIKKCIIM

[3] = molecular target: GDP-bound NRAS wild-type protein (Homo sapiens, UniProt P01111); assay: Binding to NRAS by surface plasmon resonance (SPR), Single Cycle Kinetics; conditions: for NRAS/KRAS (ratio of KD value with respect to NRAS to KD value with respect to KRAS) / NRAS/KRAS (ratio of KD value for NRAS to KD value for KRAS): SPR, GDP-bound NRAS wild-type protein vs GDP-bound KRAS wild-type protein
Chain of GDP-bound NRAS wild-type protein (P01111 whole entry): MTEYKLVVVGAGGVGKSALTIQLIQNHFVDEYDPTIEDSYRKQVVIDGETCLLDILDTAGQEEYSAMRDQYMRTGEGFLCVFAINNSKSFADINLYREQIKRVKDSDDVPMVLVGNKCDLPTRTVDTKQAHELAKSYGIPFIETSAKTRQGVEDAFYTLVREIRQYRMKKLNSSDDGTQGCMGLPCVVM

[4] = SPR Single Cycle Kinetics, 1:1 binding model

Compound	Kd [2, 4]	Kd ([2]; SPR, Single Cycle Kinetics)	HRAS/KRAS (ratio of KD value with respect to HRAS to KD value with respect to KRAS) [1]	NRAS/KRAS (ratio of KD value with respect to NRAS to KD value with respect to KRAS) [3]	HRAS/KRAS (ratio of KD value with respect to GDP-bound HRAS wild-type protein to KD value with respect to KRAS) ([1]; SPR KD ratio HRAS/KRAS, class symbols)	NRAS/KRAS (ratio of KD value with respect to GDP-bound NRAS wild-type protein to KD value with respect to KRAS) ([3]; SPR KD ratio NRAS/KRAS, class symbols)	HRAS/KRAS (ratio of KD value for HRAS to KD value for KRAS) [1]	NRAS/KRAS (ratio of KD value for NRAS to KD value for KRAS) [3]
CCO[C@@H]1C[C@H]2C(=O)NC3(CCC3)C(=O)N(C)[C@@H](C3CCCC3)C(=O)N(C)[C@H](C(=O)N(C)C)CC(=O)N(C)[C@@H](CC3CCCCC3)C(=O)N[C@@H]([C@@H](C)CC)C(=O)N(C)CC(=O)N(C)[C@H]3CCCCN(C3=O)[C@@H](Cc3ccc(C(F)(F)F)cc3)C(=O)N(C)CC(=O)N[C@@H](CCc3cc(F)c(C(F)(F)F)c(F)c3)C(=O)N2C1 [PP0701]	17 pM	–	B (a compound having 3 or more and less than 10 is denoted as B)	C (A compound having a KD ratio of 0.1 or more and less than 3 is denoted as C)	–	–	–	–
CC[C@H](C)[C@@H]1NC(=O)[C@H](CC(C)C)N(C)C(=O)C[C@@H](C(=O)N2CCOCC2)N(C)C(=O)[C@H](C2CCCC2)N(C)C(=O)C2(CCCCC2)NC(=O)[C@@H]2CCCN2C(=O)[C@H](CCc2cc(F)c(C(F)(F)F)c(F)c2)NC(=O)CN(C)C(=O)[C@H](Cc2ccc(C(F)(F)F)cc2)N2CCCCC[C@@H](C2=O)N(C)C(=O)CN(C)C1=O [PP0498]	18000 pM	–	B (a compound having 3 or more and less than 10 is denoted as B)	B (a compound having 3 or more and less than 10 is denoted as B)	–	–	–	–
CC[C@H](C)[C@@H]1NC(=O)[C@H](CC(C)C)N(C)C(=O)C[C@@H](C(=O)N2CCOCC2)N(C)C(=O)[C@H](C2CCCC2)N(C)C(=O)C2(CCCC2)NC(=O)[C@@H]2CCCN2C(=O)[C@H](CCc2ccc(C(F)(F)F)c(Cl)c2)NC(=O)CN(C)C(=O)[C@H](Cc2ccc(C(F)(F)F)cc2)N(CC2CCCC2)C(=O)CN(C)C(=O)CN(C)C1=O [PP0124] ([NMeL]I[Sar][Sar][X22][Sar][hPhe(3-Cl-4-CF3)]P[Ac5c][NMeGly(cPent)][NMeD]-Morpholide; lactam N-11)	3500 pM	–	–	–	–	–	C (A compound having a KD ratio of 0.1 or more and less than 3 is denoted as C)	C (A compound having a KD ratio of 0.1 or more and less than 3 is denoted as C)
CCO[C@@H]1C[C@H]2C(=O)NC3(CCC3)C(=O)N(C)[C@@H](C3CCCC3)C(=O)N(C)[C@H](C(=O)N(C)C)CC(=O)N(C)[C@@H](CC)C(=O)N[C@@H]([C@@H](C)CC)C(=O)N(C)CC(=O)N(C)[C@H]3CCCCN(C3=O)[C@@H](Cc3ccc(C(F)(F)F)cc3)C(=O)N(C)CC(=O)N[C@@H](CCc3ccc(C(F)(F)F)c(C)c3)C(=O)N2C1 [PP0882]	–	20 pM	–	–	–	–	B (a compound having 3 or more and less than 10 is denoted as B)	C (A compound having a KD ratio of 0.1 or more and less than 3 is denoted as C)
CCO[C@@H]1C[C@H]2C(=O)NC3(CCC3)C(=O)N(C)[C@@H](CC(F)F)C(=O)N(C)[C@H](C(=O)N3CCOCC3)CC(=O)N(C)[C@@H](CC(C)C)C(=O)N[C@@H]([C@@H](C)CC)C(=O)N(C)CC(=O)N(C)[C@H]3CCCCN(C3=O)[C@@H](Cc3ccc(C(F)(F)F)cc3)C(=O)N(C)CC(=O)N[C@@H](CCc3cc(F)c(C(F)(F)F)c(F)c3)C(=O)N2C1 [PP0813]	–	400 pM	–	–	–	–	B (a compound having 3 or more and less than 10 is denoted as B)	C (A compound having a KD ratio of 0.1 or more and less than 3 is denoted as C)
CCCN1C(=O)CN(C)C(=O)CNC(=O)[C@H]([C@@H](C)CC)NC(=O)[C@H](CC(C)C)N(C)C(=O)C[C@@H](C(=O)N(C)C)N(C)C(=O)[C@H](C2CCCC2)N(C)C(=O)C2(CCC2)NC(=O)[C@@H]2CC(F)(F)CN2C(=O)[C@H](CCc2ccc(C(F)(F)F)c(Cl)c2)NC(=O)CN(C)C(=O)[C@@H]1Cc1ccc(C(F)(F)F)cc1 [PP0420] ([NMeL]IG[Sar][NPrPhe(4-CF3)][Sar][hPhe(3-Cl-4-CF3)][Pro(4,4-F2)][Ac4c][NMeGly(cPent)][NMeD]-NMe2; lactam N-11)	34 pM	–	C (A compound having a KD ratio of 0.1 or more and less than 3 is denoted as C)	B (a compound having 3 or more and less than 10 is denoted as B)	–	–	–	–
C=CCN1CC(=O)N(C)CC(=O)N(CCC)[C@@H](Cc2ccc(C(F)(F)F)cc2)C(=O)N(C)CC(=O)N[C@@H](CCc2ccc(C(F)(F)F)c(Cl)c2)C(=O)N2CCC[C@H]2C(=O)NC2(CCCC2)C(=O)N(C)[C@@H](C2CCCC2)C(=O)N(C)[C@H](C(=O)N2CCOCC2)CC(=O)N(C)[C@@H](CC(C)C)C(=O)N[C@@H]([C@@H](C)CC)C1=O [PP0749] ([NMeL]I[NAllylGly][Sar][NPrPhe(4-CF3)][Sar][hPhe(3-Cl-4-CF3)]P[Ac5c][NMeGly(cPent)][NMeD]-Morpholide; lactam N-11)	590 pM	–	C (A compound having a KD ratio of 0.1 or more and less than 3 is denoted as C)	B (a compound having 3 or more and less than 10 is denoted as B)	–	–	–	–
CC[C@H](C)[C@@H]1NC(=O)[C@H](CC(C)C)N(C)C(=O)C[C@@H](C(=O)N2CCOCC2)N(C)C(=O)[C@H](C2CCCC2)N(C)C(=O)C2(CCCC2)NC(=O)[C@@H]2CCCN2C(=O)[C@H](CCc2ccc(C(F)(F)F)c(Cl)c2)NC(=O)CN(C)C(=O)[C@H](Cc2ccc(C)cc2)N(C)C(=O)[C@H](CO)N(C)C(=O)CN(C)C1=O [PP0037] ([NMeL]I[Sar][NMeS][NMePhe(4-Me)][Sar][hPhe(3-Cl-4-CF3)]P[Ac5c][NMeGly(cPent)][NMeD]-Morpholide; lactam N-11)	7600 pM	–	–	–	–	–	C (A compound having a KD ratio of 0.1 or more and less than 3 is denoted as C)	C (A compound having a KD ratio of 0.1 or more and less than 3 is denoted as C)
CCCN1C(=O)CN(C)C(=O)CN(CC)C(=O)[C@H]([C@@H](C)CC)NC(=O)[C@H](CC(C)C)N(C)C(=O)C[C@@H](C(=O)N2CCOCC2)N(C)C(=O)[C@H](C2CCCC2)N(C)C(=O)C2(CCCC2)NC(=O)[C@@H]2CC(F)(F)CCN2C(=O)[C@H](CCc2ccc(C(F)(F)F)c(Cl)c2)NC(=O)CN(C)C(=O)[C@@H]1Cc1ccc(C(F)(F)F)cc1 [PP0298] ([NMeL]I[NEtG][Sar][NPrPhe(4-CF3)][Sar][hPhe(3-Cl-4-CF3)][Pip(4,4-F2)][Ac5c][NMeGly(cPent)][NMeD]-Morpholide; lactam N-11)	3000 pM	–	–	–	–	–	C (A compound having a KD ratio of 0.1 or more and less than 3 is denoted as C)	B (a compound having 3 or more and less than 10 is denoted as B)

Second part, led by results:

Kd [2, 4]	Kd ([2]; SPR, Single Cycle Kinetics)	Compound	HRAS/KRAS (ratio of KD value with respect to HRAS to KD value with respect to KRAS) [1]	NRAS/KRAS (ratio of KD value with respect to NRAS to KD value with respect to KRAS) [3]	HRAS/KRAS (ratio of KD value with respect to GDP-bound HRAS wild-type protein to KD value with respect to KRAS) ([1]; SPR KD ratio HRAS/KRAS, class symbols)	NRAS/KRAS (ratio of KD value with respect to GDP-bound NRAS wild-type protein to KD value with respect to KRAS) ([3]; SPR KD ratio NRAS/KRAS, class symbols)	HRAS/KRAS (ratio of KD value for HRAS to KD value for KRAS) [1]	NRAS/KRAS (ratio of KD value for NRAS to KD value for KRAS) [3]
500 pM	–	CCO[C@@H]1C[C@H]2C(=O)NC3(CCC3)C(=O)N(C)[C@@H](C3CCCC3)C(=O)N(C)[C@H](C(=O)N(C)C)CC(=O)N(C)[C@@H](CC3CCCC3)C(=O)N[C@@H]([C@@H](C)CC)C(=O)N(C)CC(=O)N(C)[C@H]3C/C=C\CCN(C3=O)[C@@H](Cc3ccc(C)cc3)C(=O)N(C)CC(=O)N[C@@H](CCc3cc(F)c(CC)c(OC)c3)C(=O)N2C1 [PP2674]	–	–	A (a compound having 10 or more and less than 20 is denoted as A)	A (a compound having 10 or more and less than 20 is denoted as A)	–	–
–	420 pM	CCC[C@H]1C(=O)N[C@@H]([C@@H](C)CC)C(=O)N2CCC[C@H]2C(=O)N(C)[C@H]2C/C=C\CCN(C2=O)[C@@H](Cc2ccc(C)cc2)C(=O)N(C)CC(=O)N[C@@H](CCc2ccc(C(F)(F)F)c(OC)c2)C(=O)N2C[C@H](OCC)C[C@H]2C(=O)N(C)C2(CCC2)C(=O)N(C)[C@@H](C(CC)CC)C(=O)N(C)[C@H](C(=O)N(C)C)CC(=O)N1C [PP2329]	–	–	–	–	A (a compound having 10 or more and less than 20 is denoted as A)	A (a compound having 10 or more and less than 20 is denoted as A)
–	310 pM	CCO[C@@H]1C[C@H]2C(=O)NC3(CC(C)(C)C3)C(=O)N(C)[C@@H](C(CC)CC)C(=O)N(C)[C@H](C(=O)N(C)C)CC(=O)N(C)[C@@H](C)C(=O)N[C@@H]([C@@H](C)CC)C(=O)N(C)CC(=O)N(C)[C@H]3C/C=C\CCN(C3=O)[C@@H](Cc3ccc(C)cc3)C(=O)N(C)CC(=O)N[C@@H](CCc3cc(F)c(C(F)(F)F)c(F)c3)C(=O)N2C1 [PP2143]	–	–	–	–	A (a compound having 10 or more and less than 20 is denoted as A)	A (a compound having 10 or more and less than 20 is denoted as A)
–	330 pM	CCO[C@@H]1C[C@H]2C(=O)NC3(CC(C)(C)C3)C(=O)N(C)[C@@H](C(CC)CC)C(=O)N(C)[C@H](C(=O)N(C)C)CC(=O)N(C)[C@@H](CC(C)C)C(=O)N[C@@H]([C@@H](C)CC)C(=O)N(C)CC(=O)N(C)[C@H]3C/C=C\CCN(C3=O)[C@@H](Cc3ccc(C)cc3)C(=O)N(C)CC(=O)N[C@@H](CCc3ccc(C(F)(F)F)c(OC)c3)C(=O)N2C1 [PP2168]	–	–	–	–	A (a compound having 10 or more and less than 20 is denoted as A)	A (a compound having 10 or more and less than 20 is denoted as A)
–	93 pM	C#CC[C@H]1C(=O)N[C@@H]([C@@H](C)CC)C(=O)N(C)CC(=O)N(C)[C@H]2C/C=C\CCN(C2=O)[C@@H](Cc2ccc(C(F)(F)F)cc2)C(=O)N(C)CC(=O)N[C@@H](CCc2ccc(C(F)(F)F)c(OC)c2)C(=O)N2C[C@H](OCC)C[C@H]2C(=O)NC2(CCC2)C(=O)N(C)[C@@H](C2CCCC2)C(=O)N(C)[C@H](C(=O)N(C)CCC)CC(=O)N1C [PP2059]	–	–	–	–	A (a compound having 10 or more and less than 20 is denoted as A)	A (a compound having 10 or more and less than 20 is denoted as A)
